Measurements as given in US20110060009A1, “Hydroxamate-Based Inhibitors of Deacetylases” (NOVARTIS AG, priority 2009, published 2011).

Experiments:
HCT116 = HCT116 IC50 (Table 2, no method described); type: cell-based; conditions: Homo sapiens, HCT-116
HDAC-1 = molecular target: T1, HDAC-1 (Homo sapiens, UniProt Q13547); assay: HDAC Inhibition Assay (purified GST-HDAC protein); type: biochemical
T1 construct: made in house; host or cells: Sf9 or Sf21 insect cells (baculovirus, donor vector pFB-GSTX3)
T1 sequence (Q13547 whole entry, species assumed): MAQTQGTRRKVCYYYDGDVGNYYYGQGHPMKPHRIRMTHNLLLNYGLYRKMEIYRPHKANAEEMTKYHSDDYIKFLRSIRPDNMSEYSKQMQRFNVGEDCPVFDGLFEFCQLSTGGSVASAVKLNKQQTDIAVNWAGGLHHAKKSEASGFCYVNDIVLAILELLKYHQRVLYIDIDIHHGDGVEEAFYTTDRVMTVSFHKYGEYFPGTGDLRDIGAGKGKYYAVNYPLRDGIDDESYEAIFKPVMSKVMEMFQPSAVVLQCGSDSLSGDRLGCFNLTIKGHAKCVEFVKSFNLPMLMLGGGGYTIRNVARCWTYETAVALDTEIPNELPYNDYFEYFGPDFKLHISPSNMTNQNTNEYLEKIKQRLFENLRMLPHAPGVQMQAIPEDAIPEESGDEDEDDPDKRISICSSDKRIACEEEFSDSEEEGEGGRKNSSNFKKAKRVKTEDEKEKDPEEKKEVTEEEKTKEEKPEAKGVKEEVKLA
Excerpt: The baculovirus donor vector pFB-GSTX3 is used to generate a recombinant baculovirus that expresses the HDAC polypeptide. Transfer vectors containing the HDAC coding region are transfected into the DH10Bac cell line (GIBCO) and plated on selective agar plates. Colonies without insertion of the fusion sequence into the viral genome (carried by the bacteria) are blue. Single, white colonies are picked and viral DNAs (bacmid) are isolated from the bacteria by standard plasmid purification procedures. Sf9 cells or Sf21 (American Type Culture Collection) cells are then transfected in […] flasks with the viral DNA using Cellfectin reagent.
Virus-containing media is collected from the transfected cell culture and used for infection to increase its titer. Virus-containing media obtained after two rounds of infection is used for large-scale protein expression. For large-scale protein expression 100 cm^2 round tissue culture plates are seeded with 5×10^7 cells/plate and infected with 1 mL of virus-containing media (at an approximately MOI of 5). After 3 days, the cells are scraped off the plate and centrifuged at 500 rpm for 5 minutes. Cell pellets from 10-20, 100 cm^2 plates, are re-suspended in 50 mL of ice-cold lysis buffer (25 mM tris-HCl, pH 7.5, 2 mM EDTA, 1% NP-40, 1 mM DTT, 1 mM P MSF). The cells are stirred on ice for 15 minutes and then centrifuged at 5,000 rpms for 20 minutes.
The centrifuged cell lysate is loaded onto a 2 mL glutathione-sepharose column (Pharmacia) and is washed thrice with 10 mL of 25 mM tris-HCl, pH 7.5, 2 mM EDTA, 1 mM DTT, 200 mM NaCl. The GST-tagged proteins are then eluted by 10 applications (1 mL each) of 25 mM tris-HCl, pH 7.5, 10 mM reduced-glutathione, 100 mM NaCl, 1 mM DTT, 10% glycerol and stored at −70° C.
HDAC assays with purified GST-HDAC protein are carried out in a final volume of 30 μL containing 15 ng of GST-HDAC protein, 20 mM tris-HCl, pH 7.5, 1 mM MnCl2, 10 mM MgCl2, 1 mM DTT, 3 μg/mL poly(Glu,Tyr) 4:1, 1% DMSO, 2.0 μM ATP (γ-[^33P]-ATP 0.1 μCi). The activity is assayed in the presence or absence of inhibitors. The assay is carried out in 96-well plates at ambient temperature for 15 minutes under conditions described below and terminated by the addition of 20 μL of 125 mM EDTA. Subsequently, 40 μL of the reaction mixture are transferred onto EMMOBILON-PVDF membrane (Millipore) previously soaked for 5 minutes with methanol, rinsed with water, then soaked for 5 minutes with 0.5% H3PO4 and mounted on vacuum manifold with disconnected vacuum source. After spotting all samples, a vacuum is connected and each well-rinsed with 200 μL 0.5% H3PO4. Membranes are removed and washed four times on a shaker with 1.0% H3PO4, once with ethanol. Membranes are counted after drying at ambient temperature, mounting in Packard TopCount 96-well frame, and addition of 10 μL/well of MICROSCINT™ (Packard). IC50 values are calculated by linear regression analysis of the percentage inhibition of each compound in duplicate, at 4 concentrations (usually 0.01, 0.1, 1 and 10 μM).
• Input: 3×4 μL stopped assay on IMMOBILON membrane, not washed • Background (3 wells): assay with H2O instead of enzyme • Positive control (4 wells): 3% DMSO instead of compound • Bath control (1 well): no reaction mix
IC50 values are calculated by logarithmic regression analysis of the percentage inhibition of each compound at 4 concentrations (usually 3- or 10-fold dilution series starting at 10 μM). In each experiment, the actual inhibition by reference compound is used for normalization of IC50 values to the basis of an average value of the reference inhibitor:
Normalized IC50=measured IC50 average ref. IC50/measured ref. IC50

Row | IC50 (HCT116) | IC50 (HDAC-1) | SMILES
1 | 520 nM | 38 nM | O=C(/C=C/c1ccc(CN2CCC[C@@H]2C(=O)c2c[nH]c3ccccc23)cc1)NO [Cpd 12, (E)-N-Hydroxy-3-{4-[(R)-2-(1H-indole-3-carbonyl)-pyrrolidin-1-ylmethyl]-phenyl}-acrylamide]
2 | 26 nM | 15 nM | O=C(/C=C/c1ccc(CN2CCC[C@@H]2Cn2cccn2)cc1)NO [Cpd 49, (E)-N-Hydroxy-3-[4-((R)-2-pyrazol-1-ylmethyl-pyrrolidin-1-ylmethyl)-phenyl]-acrylamide]
3 |  | 8 nM | CC(C)CC1CCCN1Cc1ccc(/C=C/C(=O)NO)cc1 (centres unmarked) [Cpd 5, (E)-N-Hydroxy-3-[4-(2-isobutyl-pyrrolidin-1-ylmethyl)-phenyl]-acrylamide]
4 | 0.4 nM | 0.65 nM | Cc1[nH]c2ccccc2c1C[C@H]1CCCN1Cc1ccc(/C=C/C(=O)NO)cc1 [Cpd 4, (E)-N-Hydroxy-3-{4-[(R)-2-(2-methyl-1H-indol-3-ylmethyl)-pyrrolidin-1-ylmethyl]-phenyl}-acrylamide]
5 | 83 nM | 10 nM | O=C(/C=C/c1ccc(CN2CCC[C@H]2Cc2c[nH]c3ccccc23)c(F)c1)NO [Cpd 8, (E)-3-{3-Fluoro-4-[(S)-2-(1H-indol-3-ylmethyl)-pyrrolidin-1-ylmethyl]-phenyl}-N-hydroxy-acrylamide]
6 | 3 nM | 0.65 nM | O=C(/C=C/c1ccc(CN2CCC[C@@H]2Cc2c[nH]c3ccccc23)cc1)NO [Cpd 2, (E)-N-Hydroxy-3-{4-[(R)-2-(1H-indol-3-ylmethyl)-pyrrolidin-1-ylmethyl]-phenyl}-acrylamide]
7 |  | 170 nM | O=C(/C=C/c1ccc(CN2C[C@H](O)C[C@@H]2Cn2cc(-c3cccnc3)nn2)cc1)NO [Cpd 41, (E)-N-Hydroxy-3-{4-[(2R,4R)-4-hydroxy-2-(4-pyridin-3-yl-[1,2,3]triazol-1-ylmethyl)-pyrrolidin-1-ylmethyl]-phenyl}-acrylamide]
8 | 8 nM | 1.7 nM | O=C(/C=C/c1ccc(CN2C[C@H](O)C[C@@H]2Cc2c[nH]c3ccccc23)cc1)NO [Cpd 23, (E)-N-Hydroxy-3-{4-[(2S,4R)-4-hydroxy-2-(1H-indol-3-ylmethyl)-pyrrolidin-1-ylmethyl]-phenyl}-acrylamide]
9 | 3 nM | 1.3 nM | O=C(/C=C/c1ccc(CN2CCC[C@@H]2Cc2c[nH]c3ccccc23)c(F)c1)NO [Cpd 9, (E)-3-{3-Fluoro-4-[(R)-2-(1H-indol-3-ylmethyl)-pyrrolidin-1-ylmethyl]-phenyl}-N-hydroxy-acrylamide]
10 | 0.6 nM | 0.7 nM | Cc1[nH]c2ccccc2c1C[C@H]1CCCN1Cc1ccc(/C=C/C(=O)NO)cc1F [Cpd 10, (E)-3-{3-Fluoro-4-[(R)-2-(2-methyl-1H-indol-3-ylmethyl)-pyrrolidin-1-ylmethyl]-phenyl}-N-hydroxy-acrylamide]
11 | 0.5 nM | 1.2 nM | CO[C@@H]1C[C@H](Cc2c(C)[nH]c3ccccc23)N(Cc2ccc(/C=C/C(=O)NO)cc2)C1 [Cpd 24, (E)-N-Hydroxy-3-{4-[(2S,4R)-4-methoxy-2-(2-methyl-1H-indol-3-ylmethyl)-pyrrolidin-1-ylmethyl]-phenyl}-acrylamide]
12 | 560 nM | 56 nM | O=C(/C=C/c1ccc(CN2CCC[C@H]2C(=O)c2c[nH]c3ccccc23)cc1)NO [Cpd 11, (E)-N-Hydroxy-3-{4-[(S)-2-(1H-indole-3-carbonyl)-pyrrolidin-1-ylmethyl]-phenyl}-acrylamide]
13 | 2.4 nM | 1.3 nM | Cc1[nH]c2ccccc2c1C[C@H]1CCCN1[C@@H](C)c1ccc(/C=C/C(=O)NO)cc1 [Cpd 14, (E)-N-Hydroxy-3-(4-{(S)-1-[(R)-2-(2-methyl-1H-indol-3-ylmethyl)-pyrrolidin-1-yl]-ethyl}-phenyl)-acrylamide]
14 | 4 nM | 0.45 nM | O=C(/C=C/c1ccc(CN2C[C@@H](O)C[C@@H]2Cc2c[nH]c3ccccc23)cc1)NO [Cpd 22, (E)-N-Hydroxy-3-{4-[(2S,4S)-4-hydroxy-2-(1H-indol-3-ylmethyl)-pyrrolidin-1-ylmethyl]-phenyl}-acrylamide]
15 | 100 nM | 10 nM | O=C(/C=C/c1ccc(CN2CCC[C@H]2Cc2c[nH]c3ccccc23)cc1)NO [Cpd 1, (E)-N-Hydroxy-3-{4-[(S)-2-(1H-indol-3-ylmethyl)-pyrrolidin-1-ylmethyl]-phenyl}-acrylamide]
16 |  | 20 nM | O=C(/C=C/c1ccc(CN2CCC[C@@H]2Cc2nc(-c3ccccc3)no2)cc1)NO [Cpd 39, (E)-N-Hydroxy-3-{4-[(R)-2-(3-phenyl-[1,2,4]oxadiazol-5-ylmethyl)-pyrrolidin-1-ylmethyl]-phenyl}-acrylamide]
17 |  | 5 nM | O=C(/C=C/c1ccc(CN2CCCC2Cc2cccnc2)cc1)NO (centres unmarked) [Cpd 6, (E)-N-Hydroxy-3-[4-(2-pyridin-3-ylmethyl-pyrrolidin-1-ylmethyl)-phenyl]-acrylamide]
18 | 950 nM | 210 nM | O=C(/C=C/c1ccc(CN2CCC[C@@H]2C(=O)N2CCc3ccccc32)cc1)NO [Cpd 17, (E)-3-{4-[(R)-2-(2,3-Dihydro-indole-1-carbonyl)-pyrrolidin-1-ylmethyl]-phenyl}-N-hydroxy-acrylamide]
19 | 0.4 nM | 1.2 nM | CO[C@H]1C[C@H](Cc2c(C)[nH]c3ccccc23)N(Cc2ccc(/C=C/C(=O)NO)cc2)C1 [Cpd 25, (E)-N-Hydroxy-3-{4-[(2S,4S)-4-methoxy-2-(2-methyl-1H-indol-3-ylmethyl)-pyrrolidin-1-ylmethyl]-phenyl}-acrylamide]
20 | 3 nM | 1 nM | Cc1[nH]c2ccccc2c1C[C@H]1CCCN1[C@H](C)c1ccc(/C=C/C(=O)NO)cc1 [Cpd 15, (E)-N-Hydroxy-3-(4-{(R)-1-[(R)-2-(2-methyl-1H-indol-3-ylmethyl)-pyrrolidin-1-yl]-ethyl}-phenyl)-acrylamide]
21 |  | 0.7 nM | Cc1nn(-c2ccccc2)c(C)c1C[C@H]1C[C@H](O)CN1Cc1ccc(/C=C/C(=O)NO)cc1 [Cpd 33, (E)-3-{4-[(2S,4S)-2-(3,5-Dimethyl-1-phenyl-1H-pyrazol-4-ylmethyl)-4-hydroxy-pyrrolidin-1-ylmethyl]-phenyl}-N-hydroxy-acrylamide]
22 |  | 380 nM | CC(c1ccc(/C=C/C(=O)NO)cc1)N1CCC[C@H]1CN1CCCC1 (stereo partly drawn) [Cpd 16, (E)-N-Hydroxy-3-{4-[1-((S)-2-pyrrolidin-1-ylmethyl-pyrrolidin-1-yl)-ethyl]-phenyl}-acrylamide]
23 |  | 1.7 nM | Cc1[nH]c2ccccc2c1C[C@H]1C[C@H](O)CN1Cc1ccc(/C=C/C(=O)NO)cn1 [Cpd 28, (E)-N-Hydroxy-3-{6-[(2S,4S)-4-hydroxy-2-(2-methyl-1H-indol-3-ylmethyl)-pyrrolidin-1-ylmethyl]-pyridin-3-yl}-acrylamide]
24 |  | 27 nM | Cc1nn(-c2ccccc2)c(C)c1C(O)[C@H]1C[C@H](O)CN1Cc1ccc(/C=C/C(=O)NO)cc1 (stereo partly drawn) [Cpd 34, (E)-3-(4-{(2R,4S)-2-[(3,5-Dimethyl-1-phenyl-1H-pyrazol-4-yl)-hydroxy-methyl]-4-hydroxy-pyrrolidin-1-ylmethyl}-phenyl)-N-hydroxy-acrylamide]
25 |  | 1.7 nM | Cc1[nH]c2ccccc2c1C[C@H]1CCCN1Cc1ccc(/C=C/C(=O)NO)cn1 [Cpd 26, (E)-N-Hydroxy-3-{6-[(R)-2-(2-methyl-1H-indol-3-ylmethyl)-pyrrolidin-1-ylmethyl]-pyridin-3-yl}-acrylamide]
